# According to US6309842A, “Use of modified tethers in screening compound libraries” (Glaxo Wellcome Inc., priority 1997, dated 2001):
# Legend:
# [1] = target: T1, yeast α-factor receptor (STE2) (Saccharomyces cerevisiae, UniProt D6VTK4); test: Secretion of acid phosphatase into the medium by yeast ARY84 (pNPP assay); type: cell-based; details: for % of total acid-phosphatase activity in medium: 24 Hrs; for Induction ratio: growth selection, 500 nM vs no alpha-factor
# T1 construct: expressed in transfected cells; host or cells: yeast strain ARY84 (Δste2::ura3, plasmid pRS416(URA3)-STE2)
# T1 sequence (D6VTK4 1-431): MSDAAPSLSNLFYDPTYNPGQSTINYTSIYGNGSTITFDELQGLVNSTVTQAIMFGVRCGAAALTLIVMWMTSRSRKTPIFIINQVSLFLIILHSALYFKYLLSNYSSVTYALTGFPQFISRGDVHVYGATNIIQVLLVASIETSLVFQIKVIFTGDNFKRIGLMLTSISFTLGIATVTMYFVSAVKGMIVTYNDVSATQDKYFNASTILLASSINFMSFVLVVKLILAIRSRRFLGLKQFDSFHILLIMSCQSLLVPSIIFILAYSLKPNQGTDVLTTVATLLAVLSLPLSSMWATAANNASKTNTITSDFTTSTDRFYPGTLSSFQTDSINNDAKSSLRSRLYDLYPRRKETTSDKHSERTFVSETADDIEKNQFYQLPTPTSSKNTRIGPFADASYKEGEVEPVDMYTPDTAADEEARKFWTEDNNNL
# Source text: The strain used in these experiments is designated ARY84 (Mata prc1-407 prb1-1122 pep4-3 leu2, 3-112 ura3-52 trp1 far1::ura3 Δhis3::APT2 FUS1::HIS3 Δste2::ura3 Δsst2::ura3 Δpho5::TRP1 LEU2::pCMGy64(::FUS1-PHO3) [pRS416(URA3)-STE2]. This yeast is engineered to grow in the presence of an agonist, and also to secrete acid phosphatase as a result of agonist stimulation. The yeast strain used in these experiments bears a mutation in the SST2 gene to enhance sensitivity to agonist, an inactivating mutation in the FAR1 gene to allow growth in the presence of agonist and an inactivating mutation in the HIS3 gene. The FUS1 gene promoter stimulates transcription of two reporter genes. The first reporter gene is HIS3. 3-aminotriazole can be used to titrate out the background activity of the HIS3 gene product resulting in growth arrest due to histidine starvation. Stimulation of HIS3 transcription from the FUS1 promoter overcomes the inhibitory effect of 3-aminotriazole, allowing growth of agonist-stimulated yeast cells. The second reporter gene is PHO3 (which was obtained by PCR from yeast genomic DNA). This gene encodes secreted yeast acid phosphatase (see Johnston & Carlson, in The Molecular and Cellular Biology of the Yeast Saccharomyce, (eds. Jones et al., CSHP, 1992) Vol. 2, Ch. 5). STE2 encodes the yeast α-factor receptor. The mutation in the […] reduces the background of acid phosphatase secreted by the yeast, though this mutation may not be necessary.
# α-factor is the natural peptide agonist of the yeast α-factor receptor. The term "Growth selection" refers to growing the yeast in a defined medium (e.g., synthetic complete) (see Rose et al., Methods in Yeast Genetics: A Laboratory Course Manual (CSHLP, 1990)) lacking histidine and containing sufficient 3-aminotriazole to inhibit growth such that yeast only grow when the HIS3 gene product is expressed from the FUS1 promoter following stimulation of the STE2 receptor by α-factor. Lack of growth selection is achieved by leaving out the 3-aminotriazole and adding histdine.
# Acid phosphatase activity in the yeast growth medium was quantitated using a […] assay with the substrate para-nitrophenyl phosphate (pNPP), measuring the appearance of yellow color (Payne et al., Gene 163, 19-26 (1995). When yeast were grown under various growth conditions (+/-saturating (500 nM) concentrations of α-factor, between 26% and 69% of the total acid phosphatase activity is secreted into the medium (Table 1).
# [2] = target: T2, yeast alpha factor receptor (STE2) (Saccharomyces cerevisiae, UniProt D6VTK4); test: Secreted β-galactosidase reporter in yeast ARY 110 (FUS1 promoter); type: cell-based; details: ARY110 culture supernatants
# T2 construct: expressed in transfected cells; host or cells: yeast strain ARY 110 with plasmid pRS416-STE2
# T2 sequence (D6VTK4 1-431): T1 sequence (D6VTK4 1-431)
# Source text: A second expression system links the A. niger secreted β-galactosidasegene to the yeast mating pathway/FUS1 promoter induction system. Using the integrating beta-galactosidase encoding plasmid pCMGy69 in concert with the yeast alpha factor receptor (STE2) encoding plasmid, PRS416-STE2 (centomeric), a yeast strain designated ARY 110 was produced with the following genotype; (far1 his3 sst2 FUS1-HIS3 FUS1-sBeta-Gal STE2).
substance,measurement,setting,value
α-factor,Increase in acid phosphatase activity in the medium compared to absence of α-factor,"[1]; 500 nM α-factor, no growth selection, 24 hr",16-20 fold
same,% of total acid-phosphatase activity in medium,"[1]; alpha-factor +, growth selection +",63%
same,% of total acid-phosphatase activity in medium,"[1]; alpha-factor +, growth selection -",69%
same,Acid phosphatase activity in the medium,"[1]; 24 hours, selection +, alpha-factor +, clone #1",0.01279 OD405 units/minute
same,Acid phosphatase activity in the medium,"[1]; 24 hours, selection +, alpha-factor +, clone s3",0.02892 OD405 units/minute
same,Acid phosphatase activity in the medium,"[1]; 24 hours, selection -, alpha-factor +, clone #1",0.06481 OD405 units/minute
same,Acid phosphatase activity in the medium,"[1]; 24 hours, selection -, alpha-factor +, clone s3",0.1001 OD405 units/minute
same,Acid phosphatase activity in the medium,"[1]; 48 hr, growth selection (+10 mM 3-aminotriazole), 500 nM alpha-factor, clone #1",0.05768 OD405 units/minute
same,Acid phosphatase activity in the medium,"[1]; 48 hr, growth selection (+10 mM 3-aminotriazole), 500 nM alpha-factor, clone s3",0.1062 OD405 units/minute
same,Induction ratio,"[1]; 48 hr, clone #1",32.4
same,Induction ratio,"[1]; 48 hr, clone s3",58.7
same,Increase in acid phosphatase activity in the medium compared to absence of α-factor,"[1]; with growth selection, 48 hours, 0.5 µM",32-58 fold
same,beta-galactosidase activity in supernatants over non-induced levels,[2],up to 79 fold
